Laboratory results taken from patent US20240317735A1, “HYDROISOQUINOLINE OR HYDRONAPHTHYRIDINE COMPOUNDS FOR THE TREATMENT OF AUTOIMMUNE DISEASE” (Hoffmann-La Roche Inc., priority 2020, published 2024).

Tested on: embryonic stem cells (D3) and 3T3 fibroblasts
Assay: mouse Embryonic Stem Cell Test (mEST)
Type: cell-based
Details: <0.5 negative, >0.6 positive, 0.5-0.6 borderline
Source text: The in vitro mouse Embryonic Stem Cell Test (mEST) assay is an implemented routine assay at Roche. The original EST was developed by Horst Spielmann and his group in 1997 as an in vitro model for the screening of embryotoxicity, based on a blastocyst-derived permanent embryonic mouse ESC (mESC) D3 cell line derived from mouse 129 strains and was validated by European Centre for the Validation of Alternative Methods (ECVAM).
We further optimized and modified the approach allowing for the application of the assay to pharmaceutical compounds.
The cytotoxicity (inhibition of growth) of 3T3 fibroblasts, which represents differentiated cells and the cytotoxicity of undifferentiated embryonic stem cells (D3) after 10 days of substance treatment serve as two assay endpoints. This is determined by the use of dehydrogenase enzymes, which are present in the intact mitochondria of living cells to convert yellow soluble substrate 3-(4,5-dimethythiazol-2-yl)-2,5-diphenyl tetrazolium bromide (MTT) into a dark blue insoluble formazan product, which gets sequestered within the cells and is detected quantitatively using an absorbance reader (570 nm) after solubilizing the cell membrane.
The third endpoint is the inhibition of differentiation of ES cells into myocards which are cardiac muscle cells after 10 days of treatment. The beating of this cells is evaluated by microscopy.
• 1) Cell passage with trypsin 0.05% EDTA for D3 cells. • 2) Assembly of the cell suspension: dilute cells to 2.5×10^4/mL with 18 ml media (for each test) in 50 mL Falcon tubes. • 3) Prepare the petri dishes (PD): add 5-10 mL sterile Dulbecco's PBS (Gibco) into each dish bottom, distribute over the whole dish. • 4) Dilution series of test compound in Eppendorf tubes: add 5 μL of compound (1:400 dilution) and 5 μL control solution (DMSO) to 2 mL cell suspension, vortex. • 5) Preparation of hanging drops in petridishes: vortex tube, aspirate suspension with automatic pipette and multi-dispense 20 μL drops onto the lid of the petri dish, add 2 mL in total in a concentric circle of drops (˜100 drops); quickly but smoothly turn the cover and put on PD; incubate for 3 days at 37° C./5% CO2.
• 1) Dilution series of compound in 14 mL PP tubes • 6 tubes for the concentrations; fill with 5 mL assay media • 1 tube for DMSO (solvent control) fill with 5 mL assay media • 2) Dilution series of compound in Eppendorf tubes • Add 12.5 μL of compound (1:400 dilution) and 12.5 μL control solution, vortex • 3) Transfer of embryoid bodies in a bacterial Petri dish • Carefully turn PD lid, check the drops for fungus contamination • Rinse several times the drops down with 5 mL of the prepared solution • Transfer in a bacterial petri dish Incubate for 3 days at 37° C./5% CO2 […]

SMILES | Predictive scores D12_3
CO[C@@H]1CN(c2ccc3c(n2)[C@@H](C)CN(c2cc(C)nc4c2cnn4C)C3)C[C@H]1N [Example 63, (3R,4R)-4-methoxy-1-[(8S)-6-(1,6-dimethylpyrazolo[3,4-b]pyridin-4-yl)-8-methyl-7,8-dihydro-5H-1,6-naphthyridin-2-yl]pyrrolidin-3-amine] | 0.43
CO[C@@H]1CN(c2ccc3c(c2)[C@@H](C)CN(c2ccnc4c2cnn4C)C3)C[C@H]1N [Example 20, (3R,4R)-4-methoxy-1-[(4R)-4-methyl-2-(1-methylpyrazolo[3,4-b]pyridin-4-yl)-3,4-dihydro-1H-isoquinolin-6-yl]pyrrolidin-3-amine] | 0.49
C[C@H]1CN(c2ccnc3c2cnn3C)Cc2ccc(OC[C@H]3CNCCN3)cc21 [Example 18, (4R)-4-methyl-2-(1-methylpyrazolo[3,4-b]pyridin-4-yl)-6-[[(2R)-piperazin-2-yl]methoxy]-3,4-dihydro-1H-isoquinoline] | 0.11
C[C@H]1CN(c2ccnc3c2cnn3C)Cc2ccc(OC[C@@H]3CNCCN3)cc21 [Example 19, (4R)-4-methyl-2-(1-methylpyrazolo[3,4-b]pyridin-4-yl)-6-[[(2S)-piperazin-2-yl]methoxy]-3,4-dihydro-1H-isoquinoline] | 0.05
